Assay results reported in PubChem BioAssay (NCI).
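48-hour exposure; five concentrations; linearly interpolated endpoints. Here, GI50 denotes the concentration required for 50% inhibition of growth. TGI marks complete inhibition of growth.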

Legend:
Experiment in all cases: NCI-60 cell line screen, 48 h
[1] = test system: 786-0 renal
[2] = test system: A498 renal
[3] = test system: A549 NSCLC
[4] = test system: ACHN renal
[5] = test system: BT-549 breast
[6] = test system: CAKI-1 renal
[7] = test system: CCRF-CEM leukemia
[8] = test system: COLO 205 colon
[9] = test system: DU-145 prostate
[10] = test system: EKVX NSCLC
[11] = test system: HCC-2998 colon
[12] = test system: HCT-116 colon
[13] = test system: HCT-15 colon
[14] = test system: HL-60(TB) leukemia
[15] = test system: HOP-62 NSCLC
[16] = test system: HOP-92 NSCLC
[17] = test system: HS 578T breast
[18] = test system: HT29 colon
[19] = test system: IGROV1 ovarian
[20] = test system: K-562 leukemia
[21] = test system: KM12 colon
[22] = test system: LOX IMVI melanoma
[23] = test system: M14 melanoma
[24] = test system: MALME-3M melanoma
[25] = test system: MCF7 breast
[26] = test system: MDA-MB-231 breast
[27] = test system: MDA-MB-435
[28] = test system: MDA-MB-468 breast
[29] = test system: MOLT-4 leukemia
[30] = test system: NCI-H226 lung
[31] = test system: NCI-H23 lung
[32] = test system: NCI-H460 lung
[33] = test system: NCI-H522 lung
[34] = test system: NCI/ADR-RES ovarian
[35] = test system: OVCAR-3 ovarian
[36] = test system: OVCAR-4 ovarian
[37] = test system: OVCAR-5 ovarian
[38] = test system: OVCAR-8 ovarian
[39] = test system: PC-3 prostate
[40] = test system: RPMI-8226 leukemia
[41] = test system: RXF 393 renal
[42] = test system: SF-268 CNS
[43] = test system: SF-295 CNS
[44] = test system: SF-539 CNS
[45] = test system: SK-MEL-2 melanoma
[46] = test system: SK-MEL-28 melanoma
[47] = test system: SK-MEL-5 melanoma
[48] = test system: SK-OV-3 ovarian
[49] = test system: SN12C renal
[50] = test system: SNB-19 CNS
[51] = test system: SNB-75 CNS
[52] = test system: SR leukemia
[53] = test system: SW-620 colon
[54] = test system: T-47D breast
[55] = test system: TK-10 renal
[56] = test system: U251 CNS
[57] = test system: UACC-62 melanoma
[58] = test system: UO-31 renal

`O=C(Nc1cccc(-n2cnc3cc(-c4ccc(O)cc4)ccc32)c1)C1CC1` showed a GI50 [1] of 683 nM, a TGI [1] of 45600 nM and a GI50 [2] of 19500 nM. For the same compound, the TGI [2] was 84900 nM, the GI50 [3] was 895 nM and the TGI [3] was over 100000 nM. It also gave a GI50 [4] of 593 nM, a TGI [4] of 35200 nM and a GI50 [5] of 396 nM. It also gave a TGI [5] of 11800 nM, a GI50 [6] of 503 nM and a TGI [6] of 66500 nM. For the same compound, the GI50 [7] was 389 nM, the TGI [7] was 10300 nM and the GI50 [8] was 489 nM. For the same compound, the TGI [8] was 18600 nM, the GI50 [9] was 1460 nM and the TGI [9] was 28400 nM. It also gave a GI50 [10] of 782 nM, a TGI [10] of 36100 nM and a GI50 [11] of 1180 nM. It also gave a TGI [11] of 24400 nM, a GI50 [12] of 512 nM and a TGI [12] of 17700 nM. The GI50 [13] was 308 nM, the TGI [13] was 15700 nM and the GI50 [14] was 237 nM. For the same compound, the TGI [14] was 645 nM, the GI50 [15] was 625 nM and the TGI [15] was over 69200 nM. The GI50 [16] was 14600 nM, the TGI [16] was 52100 nM and the GI50 [17] was 388 nM. For the same compound, the TGI [17] was over 45400 nM, the GI50 [18] was 340 nM and the TGI [18] was over 40800 nM. For the same compound, the GI50 [19] was 591 nM, the TGI [19] was 26900 nM and the GI50 [20] was 284 nM. For the same compound, the TGI [20] was over 36600 nM, the GI50 [21] was 351 nM and the TGI [21] was 13900 nM. The GI50 [22] was 478 nM, the TGI [22] was 22100 nM and the GI50 [23] was 344 nM. It also gave a TGI [23] of 28300 nM, a GI50 [24] of 555 nM and a TGI [24] of 28200 nM. For the same compound, the GI50 [25] was 358 nM, the TGI [25] was 20200 nM and the GI50 [26] was 700 nM. It also gave a TGI [26] of 42900 nM, a GI50 [27] of 108 nM and a TGI [27] of 441 nM. For the same compound, the GI50 [28] was 313 nM, the TGI [28] was 8820 nM and the GI50 [29] was 435 nM. The TGI [29] was 6190 nM, the GI50 [30] was 2880 nM and the TGI [30] was 48100 nM. For the same compound, the GI50 [31] was 1120 nM, the TGI [31] was 19800 nM and the GI50 [32] was 469 nM. The TGI [32] was over 43700 nM, the GI50 [33] was 225 nM and the TGI [33] was 1140 nM. The GI50 [34] was 539 nM, the TGI [34] was 5880 nM and the GI50 [35] was 320 nM. For the same compound, the TGI [35] was 3760 nM, the GI50 [36] was 5940 nM and the TGI [36] was 73900 nM. For the same compound, the GI50 [37] was 1810 nM, the TGI [37] was 69500 nM and the GI50 [38] was 823 nM. For the same compound, the TGI [38] was over 58800 nM, the GI50 [39] was 546 nM and the TGI [39] was 53200 nM. It also gave a GI50 [40] of 615 nM, a TGI [40] of 13600 nM and a GI50 [41] of 411 nM. The TGI [41] was 6600 nM, the GI50 [42] was 935 nM and the TGI [42] was 71000 nM. For the same compound, the GI50 [43] was 372 nM, the TGI [43] was 7670 nM and the GI50 [44] was 332 nM. It also gave a TGI [44] of 2030 nM, a GI50 [45] of 417 nM and a TGI [45] of 23600 nM. The GI50 [46] was 12600 nM, the TGI [46] was 48500 nM and the GI50 [47] was 350 nM. It also gave a TGI [47] of 14800 nM, a GI50 [48] of 820 nM and a TGI [48] of 33700 nM. It also gave a GI50 [49] of 550 nM, a TGI [49] of 35600 nM and a GI50 [50] of 811 nM. For the same compound, the TGI [50] was 72900 nM, the GI50 [51] was 246 nM and the TGI [51] was 3420 nM. The GI50 [52] was 175 nM, the TGI [52] was 59600 nM and the GI50 [53] was 421 nM. For the same compound, the TGI [53] was over 91500 nM, the GI50 [54] was 521 nM and the TGI [54] was 19400 nM. It also gave a GI50 [55] of 11300 nM, a TGI [55] of 63400 nM and a GI50 [56] of 514 nM. It also gave a TGI [56] of over 100000 nM, a GI50 [57] of 354 nM and a TGI [57] of 19300 nM. For the same compound, the GI50 [58] was 599 nM and the TGI [58] was 19300 nM.
